Test [1] deals with SH-SY5Y cells. The test is described as follows: MNNG-induced parthanatic cell death in SH-SY5Y cells (Alamar blue cell viability). Format: cell-based. Conditions: 50 μM MNNG for 15 min, viability after 24 h. The text has this:
We developed an assay to screen for PAAN/MIF nuclease inhibitors. Single-stranded PAAN/MIF nuclease DNA substrate (FIG. 10A) was amine modified on the 5′ end and immobilized on a plate. Hybridization with a biotin-labeled complementary oligonucleotide followed by addition of streptavidin conjugated horseradish peroxidase enzyme (HRP) leads to retention of HRP on the surface within each well in the presence of intact PAAN/MIF nuclease DNA substrate, which can be quantitatively detected through colorimetric change at 450 nm using the HRP substrate 3,3′,5,5′-tetramethylbenzidine (TMB). In the presence of WT PAAN/MIF, there is reduced signal, indicative of cleavage of the PAAN/MIF nuclease substrate, while the signal is not attenuated without recombinant PAAN/MIF (FIGS. 1 and 10B). […] Thus, the rapafucin library containing 45,000 macrocyclic compounds in 3,000 pools of 15 compounds was screened using this assay. […] Several pools were identified that inhibit PAAN/MIF nuclease activity from the primary screen (FIG. 4A). […] Nine pools of compounds were identified that both inhibit PAAN/MIF cleavage of the substrate and protect against MNNG-induced parthanatic cell death by greater than 70% (FIG. 10D). […] Next, the 90 individual compounds in the 6 pools were synthesized and further assessed for inhibition of PAAN/MIF nuclease activity and MNNG-induced parthanatic cell death. Among them 12 compounds (compounds 16-18, 26-28, 41, 56, 66, 67, 76, and 77) were identified that block MIF nuclease activity and MNNG-induced parthanatic cell death by greater than 60% (FIG. 10F). Dose dependence (0.1 to 1.0 μM) were assessed for the 12 compounds against MNNG-induced parthanatic cell death (FIG. 11A and Table 2) and inhibition of PAAN MIF nuclease activity against the RF (FIG. 111B) and PS30 substrates (FIG. 11C).
Cell culture, transfection, primary neuronal culture and treatment. SH-SY5Y cells (ATCC) were cultured in DMEM containing 10% fetal bovine serum and penicillin/streptomycin at 37° C. under 5% C02. The cells were transfected using PolyFect reagent (Qiagen). Parthanatos was induced by the treatment of 50 μM MNNG for 15 min in SH-SY5Y cells. ABT-888 or PAAN/MIF inhibitors were pretreated with indicated concentration 1 h before MNNG treatment and cell death were assessed after 24 h. Primary cortical neurons from WT, PAAN/MIF KO, E22Q KI or P1G KI embryos were prepared as previously described See Kam et al. (2018) Science 362:eaat8407. Briefly, the cortex was dissected and cultured at embryonic day 16 in neurobasal media supplemented with B-27, 0.5 mM L-glutamine, penicillin and streptomycin (Invitrogen). Primary neurons were infected with AAV2-control, AAV2-PAAN/MIF WT, AAV2-PAAN/MIF E22Q, AAV2-PAAN/MIF E22A or AAV2-MIF P1G (ViGene Biosciences) at days in vitro (DIV) 4-5. ABT-888 or PAAN/MIF inhibitors were applied to neurons 1 h before α-syn PFF treatment. The neuron growth medium was replaced with fresh medium alone or including inhibitors every 3-4 days. α-syn PFF was added at DIV 7 and further incubated for indicated times followed by the cell death assay or biochemical experiments.
Cell death and viability assessment. Primary cultured cortical neurons were treated with 5 μg/ml of α-syn PFF for 14 days and cell death was determined by staining of all nuclei with 7 μM Hoechst 33342 and dead cell nuclei with 2 μM propidium iodide (PI) (Invitrogen). The numbers of total and dead cells were counted with the Axiovision 4.6 software (Carl Zeiss). Cell viability was determined by fluorescence at an excitation wavelength 570 nm and an emission wavelength 585 nm using Alamar Blue (Invitrogen). […]

The subject of a further test is HT 22 cells. The test is described as follows: TNF-α and z-VAD-induced necroptosis, Alamar blue. Format: cell-based. Conditions: 1 ng/ml TNF-α with 50 μM z-VAD. As for the experimental part:
(§1) Graphs represent mean±s.e.m. ***P<0.0005, two-way ANOVA followed by Tukey's post hoc test (n=3). A PARP inhibitor, ABT-888 is used for the positive control. FIGS. 12B and 12C show in vitro oxidoreductase and tautomerase activity of MIF/PAAN with compound 41, 56, 76, or 77. FIGS. 12D and 12E show Alamar blue cell viability assay from SH-SY5Y cells pre-incubated with compound 41, 56, 76, or 77 in response to 0.5 μM staurosporine (STS) or from HT 22 cells incubated with 1 ng/ml of TNF-α with 50 μM z-VAD. A pan caspase inhibitor, z-VAD or necrostatin (Nec-1) is used for the positive control and PARP inhibitor, ABT-888 is used for negative control. Bars represent mean±s.e.m. ***P<0.0005, two-way ANOVA followed by Tukey's post hoc test (n=3). […] Bars represent mean±s.e.m. **P<0.005, ***P<0.0005, two-way ANOVA followed by Tukey's post hoc test (n=3).
(§2) FIGS. 14A-14G show the characterization of compound 121. […] Bars represent means±s.e.m. ***P<0.0005, two-way ANOVA followed by Tukey's post hoc test (n=4). […] Bars represent mean±s.e.m. ***P<0.0005, two-way ANOVA followed by Tukey's post hoc test (n=4). […] Bars represent means±s.e.m. **P<0.005, ***P<0.0005, one-way ANOVA followed by Tukey's post hoc test (n=3). […] Bar represent mean±s.e.m. ***P<0.0005, one-way ANOVA followed by Tukey's post hoc test (n=3). […] Quantification of inhibition of PARP-1 activity by compound 56, compound 121 and ABT-888 is shown. Graphs represent mean±s.e.m. ***P<0.0005, two-way ANOVA followed by Tukey's post hoc test (n=3). FIGS. 14F and 14G show Alamar blue cell viability assay from SH-SY5Y cells pre-incubated with either compound 56 or 121 in response to (14F) 0.5 μM staurosporine (STS) or (14G) from HT 22 cells incubated with 1 ng/ml of TNF-α with 50 μM z-VAD. Bars represent mean±s.e.m. ***P<0.0005, two-way ANOVA followed by Tukey's post hoc test (n=5).
(§3) Cell death and viability assessment. Primary cultured cortical neurons were treated with 5 μg/ml of α-syn PFF for 14 days and cell death was determined by staining of all nuclei with 7 μM Hoechst 33342 and dead cell nuclei with 2 μM propidium iodide (PI) (Invitrogen). The numbers of total and dead cells were counted with the Axiovision 4.6 software (Carl Zeiss). Cell viability was determined by fluorescence at an excitation wavelength 570 nm and an emission wavelength 585 nm using Alamar Blue (Invitrogen).

The test system of test [2] is SH-SY5Y cells. The test is described as follows: Staurosporine (STS)-induced apoptotic cell death, Alamar blue. Particulars: 0.5 μM STS. Format: cell-based. As for the experimental part:
as §1, §2, §3
A general note: Resazurin is reduced to fluorescent resorufin, in cell work by metabolically active cells.

A further test has as its target T1, MIF (Homo sapiens, UniProt P14174).
T1 sequence (P14174 1-115): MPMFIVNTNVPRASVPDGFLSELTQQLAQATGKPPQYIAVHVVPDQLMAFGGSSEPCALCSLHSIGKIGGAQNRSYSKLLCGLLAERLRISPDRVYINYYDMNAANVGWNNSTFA
Description: Nuclease assay of Example 3 (MIF inhibitory activity, Table 4). The test is classed as biochemical. Also on record: (%) inhibition of MIF nuclease activity: concentration or dose not given beside the values. Conditions: nuclease assay of Example 3. An outline of the steps:
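Human genomic DNA (200 ng), pcDNA (200 ng) or PS^30-type substrates (1 μM) were incubated with MIF (0.25-8 μM final) in 10 mM Tris-HCl pH 7.0, 10 mM MgCl2, 1 mM DTT at 37 °C for 1 h (pcDNA, small substrates) or 4 h (genomic DNA). Cleavage was assessed by agarose or PAGE electrophoresis with EtBr staining and chemiluminescent detection of biotin-labelled DNA.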

Test [3] relates to HeLa cells or neuronal cells. Description: Cell death assay of Example 3 (MNNG, alamarBlue; protection against parthanatos, Table 4). Format: cell-based. Particulars: 1 μM test compound, MNNG-induced cell death, alamarBlue. An outline of the steps: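 HeLa or neuronal cells (1×10^4/well) were pretreated 1 h at 37° C with 1 μM compound, exposed to MNNG for 15 min, washed, then re-incubated 18 h with 1 μM compound. Viability was read by alamarBlue fluorescence (ex 560/em 590 nm). Cell death was expressed relative to control wells.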

Structures are written as SMILES. Where a SMILES comes first, the peptide text is derived from it. The star is where a group is joined. Cbz = O=C(OCc1ccccc1)*; CH2F = FC*

Turning to `C=CC[C@@H]1/C=C(\C)C[C@H](C)C[C@H](OC)[C@H]2O[C@@](O)(C(=O)C(=O)N3CCCC[C@H]3C(=O)O[C@H](/C(C)=C/[C@@H]3CC[C@@H](O)[C@H](OC)C3)[C@H](C)[C@@H](O)CC1=O)[C@H](C)C[C@@H]2OC` [FK506, reference compound], in the test with SH-SY5Y cells [1], the “inhibition of MNNG-induced parthanatic cell death” value is recorded as “failed to inhibit”.
As for `CN1C(=O)C(Cc2c[nH]c3ccccc23)NC1=S` (stereo not shown) [Nec-1, necrostatin, reference compound], the “TNFα and Z-VAD-induced necroptosis” value in the test with HT 22 cells is reported as “prevents”.
Consider `CC(NC(=O)C(NC(=O)OCc1ccccc1)C(C)C)C(=O)NC(CC(=O)O)C(=O)CF` (stereo not drawn) [Z-VAD, reference compound] (Cbz-Val-Ala-Asp-CH2F; configuration not given here), for which, in the test with SH-SY5Y cells [2], the “staurosporine (STS)-induced apoptotic cell death” value was “prevents”.
For the molecule `COc1ccc(CC[C@H]2OC(=O)[C@@H]3CCCCN3C(=O)C(=O)C(C)(C)COC(=O)C=CCCN(C)C(=O)[C@@H]3CCCN3C(=O)[C@H](COC(C)(C)C)N(C)C(=O)C(c3ccccc3)NC(=O)C(c3ccccc3)N(C)C(=O)COc3cccc2c3)cc1OC` (stereo partly shown) [compound 144], the “(%) inhibition of MIF nuclease activity” value on MIF came out at 10.7%. Also, the “(%) inhibition of cell death” value in test [3] came to 51.3%.
Taken in the same sequence, the figures for `COc1ccc(CC[C@H]2OC(=O)[C@@H]3CCCCN3C(=O)C(=O)C(C)(C)COC(=O)C=CCCN(C)C(=O)[C@@H]3CCCN3C(=O)[C@H](COC(C)(C)C)N(C)C(=O)C(c3ccccc3)NC(=O)[C@H](Cc3ccccc3)N(C)C(=O)COc3cccc2c3)cc1OC` (stereo partly shown) [compound 145] were 6.7% and 46.6%.
Taken in the same sequence, the figures for `COc1ccc(CC[C@H]2OC(=O)[C@@H]3CCCCN3C(=O)C(=O)C(C)(C)COC(=O)C=CCCN(C)C(=O)[C@@H]3CCCN3C(=O)[C@H](COC(C)(C)C)N(C)C(=O)C(c3ccccc3)NC(=O)[C@H](COC(C)(C)C)N(C)C(=O)COc3cccc2c3)cc1OC` (stereo partly shown) [compound 146] were −1.1% and 43.9%.
Turning to `COc1ccc(CC[C@H]2OC(=O)[C@@H]3CCCCN3C(=O)C(=O)C(C)(C)COC(=O)C=CCCN(C)C(=O)[C@@H]3CCCN3C(=O)[C@H](COC(C)(C)C)N(C)C(=O)C(c3ccccc3)NC(=O)[C@H](C(C)CC(C)(C)C)N(C)C(=O)COc3cccc2c3)cc1OC` (stereo partly shown) [compound 147], the “(%) inhibition of MIF nuclease activity” value at MIF is −4.7%. Further, in test [3], the “(%) inhibition of cell death” value is on record as 46.2%.
Taken in the same sequence, the figures for `COc1ccc(CC[C@H]2OC(=O)[C@@H]3CCCCN3C(=O)C(=O)C(C)(C)COC(=O)C=CCCN(C)C(=O)[C@@H]3CCCN3C(=O)[C@H](COC(C)(C)C)N(C)C(=O)C(c3ccccc3)NC(=O)[C@H](Cc3ccc(O)cc3)N(C)C(=O)COc3cccc2c3)cc1OC` (stereo partly shown) [compound 148] were 12.0% and 50.7%.
Taken in the same sequence, the figures for `C[C@H]1C(=O)NC(c2ccccc2)C(=O)N(C)[C@@H](COC(C)(C)C)C(=O)N2CCC[C@H]2C(=O)N(C)CCC=CC(=O)OCC(C)(C)C(=O)C(=O)N2CCCC[C@H]2C(=O)O[C@H](CCc2ccccc2)c2cccc(c2)OCC(=O)N1C` (stereo partly shown) [compound 149] were −11.8% and 51.0%.
Taken in the same sequence, the figures for `COc1cccc(CC[C@H]2OC(=O)[C@@H]3CCCCN3C(=O)C(=O)C(C)(C)COC(=O)C=CCCN(C)C(=O)[C@@H]3CCCN3C(=O)[C@H](COC(C)(C)C)N(C)C(=O)C(c3ccccc3)NC(=O)[C@H](C)N(C)C(=O)COc3cccc2c3)c1` (stereo partly shown) [compound 150] were 10.7% and 50.8%.
As to `COc1ccc(CC[C@H]2OC(=O)[C@@H]3CCCCN3C(=O)C(=O)C(C)(C)COC(=O)C=CCCN(C)C(=O)[C@@H]3CCCN3C(=O)[C@H](COC(C)(C)C)N(C)C(=O)C(c3ccccc3)NC(=O)[C@H](C)N(C)C(=O)COc3cccc2c3)cc1` (stereo partly shown) [compound 151], the “(%) inhibition of MIF nuclease activity” value on MIF amounted to 6.8%. The “(%) inhibition of cell death” value in test [3] is 45.7%.
As for `COc1ccc(CC[C@H]2OC(=O)[C@@H]3CCCCN3C(=O)C(=O)C(C)(C)COC(=O)C=CCCN(C)C(=O)[C@@H]3CCCN3C(=O)[C@H](COC(C)(C)C)N(C)C(=O)C(c3ccccc3)NC(=O)[C@H](C)N(C)C(=O)COc3cccc2c3)cc1OC` (stereo partly shown) [compound 152], on MIF, the “(%) inhibition of MIF nuclease activity” value was −2.4%. Also, the “(%) inhibition of cell death” value in test [3] (1 µM) stood at 43.0%.
As for `CO[C@H]1C[C@@H]2CC[C@@H](C)[C@@](O)(O2)C(=O)C(=O)N2CCCC[C@H]2C(=O)O[C@H]([C@H](C)C[C@@H]2CC[C@@H](O)[C@H](OC)C2)CC(=O)[C@H](C)/C=C(\C)[C@@H](O)[C@@H](OC)C(=O)[C@H](C)C[C@H](C)/C=C/C=C/C=C/1C` [rapamycin, reference compound], the “inhibition of MNNG-induced parthanatic cell death” value in the test with SH-SY5Y cells [1] is “failed to inhibit”.
